Test results from publication PMC3170264 (Retrovirology, 2011).
Positions count from the first letter of the chain named.

Key:
HIV-2 IN (N1 to N3) = target: T1, HIV-2 IN (N1 to N3) (Human immunodeficiency virus type 2 subtype B, UniProt Q89928, I1218V/I1301V/I1372V/M1455R/N1185G/N1438H/R1202K/R1392Q/T1348V/T1383A/V1460M); assay: 3'-processing inhibition, INs from clinical isolates N1 to N3; format: biochemical; details: at concentrations up to 1 μM; data not shown
T1 construct: His-tag (pET-15b) (N); made in house; host or cells: Escherichia coli BL21-CodonPlus (DE3)-RIPL
T1 sequence (Q89928 1169-1464 N1185G/R1202K/I1218V/I1301V/T1348V/I1372V/T1383A/R1392Q/N1438H/M1455R/V1460M limits assumed): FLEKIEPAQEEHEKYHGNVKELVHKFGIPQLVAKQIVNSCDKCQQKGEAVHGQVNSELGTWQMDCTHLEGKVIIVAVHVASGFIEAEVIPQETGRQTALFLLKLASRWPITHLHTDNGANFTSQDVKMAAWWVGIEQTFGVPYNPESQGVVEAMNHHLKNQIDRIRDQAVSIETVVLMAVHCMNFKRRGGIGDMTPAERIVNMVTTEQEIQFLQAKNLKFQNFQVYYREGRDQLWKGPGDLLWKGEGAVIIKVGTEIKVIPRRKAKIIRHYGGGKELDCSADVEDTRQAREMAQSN
Procedure: (§1) The activity of wild-type and mutated INs was determined in vitro, as previously described. Briefly, oligonucleotides (ODN) mimicking the end of the U5 long terminal repeat of the viral genome were radiolabeled with T4 polynucleotide kinase (Biolabs, Ipswich, USA) and [γ-^32P] ATP (3,000 Ci/mmol) (Amersham, GE Healthcare, USA), then purified on a Sephadex G-10 column (GE Healthcare, USA). Double-stranded ODNs were obtained by mixing equimolar amounts of complementary strands in the presence of 100 mM NaCl.

HIV-2 IN N155H = HIV-2 IN N155H (Human immunodeficiency virus type 2 subtype B, UniProt Q89928, I1218V/I1301V/I1372V/M1455R/N1185G/N1323H/N1438H/R1202K/R1392Q/T1348V/T1383A/V1460M); details: N155H in N1 background; 200 nM IN
Procedure: (§2) Mutations were introduced in the HIV-2 N1 background by mutagenesis. […] Activity is expressed as a % of control without drug. Experiments were performed two times.
(§3) The IN coding sequences from the viruses isolated from the plasma of HIV-2-infected patients N1 to N3 and T1 to T7 were amplified by PCR and sequenced according to a previously described procedure. PCR products corresponding to the entire IN sequence were amplified again with the following specific primers containing NdeI and BamH I restriction sites at their 5' ends. Primer 1: N1, N2, T1, T2, 5'-[…]-3'; N3, 5'-[…]-3'; T3-T7, 5'-[…]-3'. Primers 2: N1, 5'-[…]-3'; N2, 5'-[…]-3'; N3, 5'-[…] The amplicons were then ligated into the TA cloning plasmid pGEM-T easy (Promega, Madison, USA). Single (E92Q, T97A, G140S, Q148R, Y143C, N155H) and double (G140S/Q148R, Y143C/N155H, E92Q/Y143C and T97A/Y143C) mutations were introduced into the HIV-2 wild-type N1 sequence by mutagenesis using the QuickChange II site-directed mutagenesis kit (Agilent Technologies, Santa Clara, USA) according to the manufacturer instructions. NdeI - BamH fragments covering the IN coding sequence were then inserted into the expression vector pET-15b.
as §1

HIV-2 IN E92Q = HIV-2 IN E92Q (Human immunodeficiency virus type 2 subtype B, UniProt Q89928, E1260Q/I1218V/I1301V/I1372V/M1455R/N1185G/N1438H/R1202K/R1392Q/T1348V/T1383A/V1460M); details: E92Q in N1 background; 200 nM IN
Procedure: as §2, §3, §1

HIV-2 IN T97A/Y143C = HIV-2 IN T97A/Y143C (Human immunodeficiency virus type 2 subtype B, UniProt Q89928, I1218V/I1301V/I1372V/M1455R/N1185G/N1438H/R1202K/R1392Q/T1265A/T1348V/T1383A/V1460M/Y1311C); details: T97A/Y143C in N1 background; 200 nM IN
Procedure: as §2, §3, §1

HIV-2 IN G140S/Q148R = HIV-2 IN G140S/Q148R (Human immunodeficiency virus type 2 subtype B, UniProt Q89928, G1308S/I1218V/I1301V/I1372V/M1455R/N1185G/N1438H/Q1316R/R1202K/R1392Q/T1348V/T1383A/V1460M); details: G140S/Q148R in N1 background; 200 nM IN
Procedure: as §2, §3, §1

HIV-2 IN Y143C = HIV-2 IN Y143C (Human immunodeficiency virus type 2 subtype B, UniProt Q89928, I1218V/I1301V/I1372V/M1455R/N1185G/N1438H/R1202K/R1392Q/T1348V/T1383A/V1460M/Y1311C); details: Y143C in N1 background; 200 nM IN
Procedure: as §2, §3, §1

HIV-2 N2 IN = target: T2, HIV-2 N2 IN (Human immunodeficiency virus type 2 subtype B, UniProt Q89928, I1301V/I1428V/M1455R/N1185G/N1438H/R1202K/R1392Q/T1348A/T1383N/V1343I/V1460M); assay: strand transfer inhibition, IN from clinical isolate N2; format: biochemical; details: IN from RAL-naive patient N2; 200 nM IN; 37°C; Mg2+
T2 construct: His-tag (pET-15b) (N); made in house; host or cells: Escherichia coli BL21-CodonPlus (DE3)-RIPL
T2 sequence (Q89928 1169-1464 N1185G/R1202K/I1301V/V1343I/T1348A/T1383N/R1392Q/I1428V/N1438H/M1455R/V1460M limits assumed): T1 sequence (Q89928 1169-1464 N1185G/R1202K/I1218V/I1301V/T1348V/I1372V/T1383A/R1392Q/N1438H/M1455R/V1460M limits assumed) with V50I, V175I, V180A, V204I, A215N, I260V
Procedure: The ST reaction was performed using a ^32P-labeled oligonucleotide mimicking the preprocessed substrate. Drug concentrations are indicated above each lane. […] Activity is expressed as a % of control without drug. Experiments were repeated two times.
The HIV-2 ODN substrate sequences were: UA: 5'-[…]-3'; U5B: 5'-[…]-3'; U5B-2: 5'-[…] […]-3'.

With Cc1nnc(C(=O)NC(C)(C)c2nc(C(=O)NCc3ccc(F)cc3)c(O)c(=O)n2C)o1 [RAL, raltegravir] the “effect on 3' processing in vitro” value (HIV-2 IN (N1 to N3)) was “no significant effect”, the “resistance to RAL, strand transfer” value (HIV-2 IN N155H) was “high level of resistance” and the “resistance to RAL, strand transfer” value (HIV-2 IN E92Q) was “did not confer significant resistance”. For the same compound, the “resistance to RAL, strand transfer” value (HIV-2 IN T97A/Y143C) was “did not lead to detectable IN resistance”, the “resistance to RAL, strand transfer” value (HIV-2 IN G140S/Q148R) was “highly resistant” and the “resistance to RAL, strand transfer” value (HIV-2 IN Y143C) was “did not lead to significant resistance”. The IC50 (HIV-2 N2 IN) was 30 nM.
